The data set in a line: aqueous equilibrium solubility. Conditions: aqueous suspension on a rotator for 48 hours at room temperature; filtered 0.45-micrometer PTFE; HPLC. It is filed as physicochemical. How it is done: The aqueous equilibrium solubility of 3-[4(1,2-diphenyl-but-1-enyl)-phenyl]-acrylic acid, a SERM compound, and its meglumine and lysine salts were determined by placing aqueous suspensions of the corresponding compound on a rotator for 48 hours at room temperature. The samples were filtered using a 0.45-micrometer PTFE filter and analyzed by HPLC. The pH of the filtrate was also determined.

Our source for the equilibrium aqueous solubility values is patent US6417394B2, “Specific salt forms of triphenylethylene derivatives as selective estrogen receptor modulators” (Bristol Myers Squibb Pharma Company, priority 2000, dated 2002).

For `CCC(=C(c1ccccc1)c1ccc(C=CC(=O)O)cc1)c1ccccc1` [3-[4(1,2-diphenyl-but-1-enyl)-phenyl]-acrylic acid (free aci], the equilibrium aqueous solubility came to 8.6 µg/mL.

As to `CCC(=C(c1ccccc1)c1ccc(C=CC(=O)O)cc1)c1ccccc1` [3-[4(1,2-diphenyl-but-1-enyl)-phenyl]-acrylic acid (lysine s], the equilibrium aqueous solubility worked out at 400 µg/mL.

The compound `CCC(=C(c1ccccc1)c1ccc(C=CC(=O)O)cc1)c1ccccc1` [3-[4(1,2-diphenyl-but-1-enyl)-phenyl]-acrylic acid (meglumin] came in with an equilibrium aqueous solubility of 700 µg/mL.
